The target of the assay is GBA1 (Homo sapiens (Human), UniProt P04062). The assay can be described thus: Kinetic constants of GBA1 inhibition (Table 2). The format is biochemical. The settings on record: Table 2 kinetic constants.
Chain of GBA1 (P04062 40-536): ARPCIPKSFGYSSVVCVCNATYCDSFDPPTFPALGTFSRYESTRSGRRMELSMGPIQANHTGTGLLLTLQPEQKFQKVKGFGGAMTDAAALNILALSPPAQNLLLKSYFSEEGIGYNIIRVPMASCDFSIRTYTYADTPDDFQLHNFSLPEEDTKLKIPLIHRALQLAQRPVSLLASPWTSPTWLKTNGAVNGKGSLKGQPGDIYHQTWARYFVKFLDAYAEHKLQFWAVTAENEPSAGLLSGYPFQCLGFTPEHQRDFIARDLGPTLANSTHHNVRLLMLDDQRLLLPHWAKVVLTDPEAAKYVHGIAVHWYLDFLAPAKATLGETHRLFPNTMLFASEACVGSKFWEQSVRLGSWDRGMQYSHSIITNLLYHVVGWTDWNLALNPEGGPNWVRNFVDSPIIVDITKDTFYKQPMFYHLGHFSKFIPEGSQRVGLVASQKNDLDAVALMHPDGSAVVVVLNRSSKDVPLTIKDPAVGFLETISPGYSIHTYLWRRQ

As for `[N-]=[N+]=NC[C@@H]1[C@@H](O)[C@H](O)[C@@H](O)[C@@H]2O[C@H]12` [KY170, (2S,3R,4S,5S)-8-azido-8-deoxy-cyclophellitol], the ki is 0.0237 min⁻¹.
